Laboratory results published in paper PMC8877291, “Design and Synthesis of Arylpiperazine Serotonergic/Dopaminergic Ligands with Neuroprotective Properties” (Molecules, 2022).

How the values were obtained:
[1] = tested on: SH-SY5Y neuroblastoma cells; assay: Neuroprotection against H2O2 in SH-SY5Y cells (MTT assay); assay type: cell-based, human; details: 3 h pretreatment, both concentrations (1 μM and 5 μM), then 400 μM H2O2 24 h
Experimental: Treatment of SH-SY5Y cells with 400 μM H2O2 for 24 h led to a reduction of cell viability of 72–76% (Figure 3). The protective effect of each compound was determined by pretreating the cells with the test compound for 3 h at the non-toxic doses of 1 μM and 5 μM, and subsequent treatment with 400 μM H2O2 for an additional 24 h.
(§1) SH-SY5Y neuroblastoma cells (cat. CRL-2266, ATCC) were cultured in a 1:1 mixture of Eagle’s Minimum Essential Medium (cat. 15-010-CVR, Corning) and Ham’s F12 medium (cat. 10-080-CVR, Corning). This medium was supplemented with 10% (v/v) Fetal Bovine Serum (cat. 35-079-CV, Corning), 1% (v/v) Glutamine (cat. ECB3000D, Euro Clone) and 1% (v/v) Penicillin—Streptomycin (cat.30-002-CI, Corning). Cells were cultivated at 37 °C with 5% CO2 at saturated humidity.
Determination of neuroprotection against H2O2 was performed using the MTT assay at 24 h. On day 1, 25,000 cells/well were seeded into 96-well plates in a volume of 100 μL. On day 2, the cells were pretreated (3 h) with two drug concentrations (1 μM and 5 μM) before being incubated with 400 μM H2O2 for 24 h. In all the experiments, the various drug-solvents (EtOH, DMSO) were added in each control to evaluate a possible solvent cytotoxicity. After 24 h incubation, MTT (0.5 mg/mL) was added to each well, and after 3–4 h incubation at 37 °C, the supernatant was removed. The formazan crystals were solubilized using 100 μL of DMSO/EtOH (1:1, v/v) and the absorbance values at 570 and 630 nm were determined on the microplate reader Victor 3 from PerkinElmer Life Sciences (Waltham, MA, USA).
Data were analyzed by applying the one-way repeated measures analysis of variance, and Bonferroni’s multiple comparison test followed as a post hoc test. Results are reported as mean SD of at least two to three independent experiments, performed in triplicate. Statistical significance was accepted at p < 0.05.

[2] = tested on: SH-SY5Y neuroblastoma cells; assay: Cytotoxicity in SH-SY5Y cells (MTT assay); assay type: cell-based, human; details: 48 h, dose range 0.1 to 100 μM
Experimental: Initially, the cytotoxicity of the target compounds was assessed by treating SH-SY5Y cells for 48 h with various concentrations of compounds (0.1 to 100 μM).
as §1
Determination of cell growth was performed using the MTT assay at 48 h. On day 1, 25,000 cells/well were seeded into 96-well plates in a volume of 100 μL. On day 2, the various drug concentrations ([…]–100 μM) were added. In all the experiments, the various drug-solvents (EtOH, DMSO) were added in each control to evaluate possible solvent cytotoxicity. After the established incubation time with drugs (48 h), MTT (0.5 mg/mL) was added to each well, and after 3–4 h incubation at 37 °C, the supernatant was removed. The formazan crystals were solubilized using 100 μL of DMSO/EtOH (1:1, v/v) and the absorbance values at 570 and 630 nm were determined on the microplate reader Victor 3 (PerkinElmer Life Sciences, Waltham, MA, USA).

| SMILES | recovery of cell viability vs 400 μM H2O2 alone (in words) [1] | cytotoxicity (in words) [2] |
| --- | --- | --- |
| CC1Oc2ccc(OCCCN3CCN(c4ncccc4-c4ccncc4)CC3)cc2NC1=O (centres unmarked) [Compound 8a, 6-(3-(4-([3,4’-Bipyridin]-2-yl)piperazin-1-yl)propoxy)-2-methyl-2H-benzo[b][1,4]oxazin-3(4H)-one] | statistically significant recovery of cell viability | – |
| CC1Oc2ccc(OCCCCN3CCN(c4ncccc4-c4ccncc4)CC3)cc2NC1=O (centres unmarked) [Compound 8b, 6-(4-(4-([3,4’-Bipyridin]-2-yl)piperazin-1-yl)butoxy)-2-methyl-2H-benzo[b][1,4]oxazin-3(4H)-one] | statistically significant recovery of cell viability | – |
| COc1ccc(-c2cc(F)ccc2N2CCN(CCCCn3ncc(=O)n(C)c3=O)CC2)cc1 [Compound 9b, 2-(4-(4-(5-Fluoro-4’-methoxy-[1,1’-biphenyl]-2-yl)piperazin-1-yl)butyl)-4-methyl-1,2,4-triazine-3,5(2H,4H)-dione] | statistically significant recovery of cell viability | – |
| Cn1c(=O)cnn(CCCN2CCN(c3ncccc3-c3ccncc3)CC2)c1=O [Compound 11a, 2-(3-(4-([3,4’-Bipyridin]-2-yl)piperazin-1-yl)propyl)-4-methyl-1,2,4-triazine-3,5(2H,4H)-dione] | – | not cytotoxic |
| Cn1c(=O)cnn(CCCCN2CCN(c3ncccc3-c3ccncc3)CC2)c1=O [Compound 11b, 2-(4-(4-([3,4’-Bipyridin]-2-yl)piperazin-1-yl)butyl)-4-methyl-1,2,4-triazine-3,5(2H,4H)-dione] | – | not cytotoxic |
